This passage reports Activity and inhibition results from ChEMBL document CHEMBL5678818, “Discovery of potent SOS1 inhibitors that block RAS activation via disruption of the RAS-SOS1 interaction” (Proc Natl Acad Sci U S A, 2019).

The target in assay [1] is Ribosomal protein S6 kinase alpha-6 (Homo sapiens) (UniProt Q9UK32). In words: Inhibition of N-terminal RSK4 […] domain 1 (unknown origin) assessed as residual activity at 100 nM by KINOMEscan analysis relative to control.
For assay [2], the system named is Epidermal growth factor receptor (Homo sapiens), P00533 [UNDEFINED MUTATION]. In words: Inhibition of EGFR S752-I759del mutant (unknown origin) assessed as residual activity at 100 nM by KINOMEscan analysis relative to control.
For assay [3], the target named is Protein kinase C eta type (Homo sapiens) (UniProt P24723). The experiment in a line: Inhibition of PRKCH (unknown origin) assessed as residual activity at 100 nM by KINOMEscan analysis relative to control.
In assay [4] the test system is Phosphatidylinositol 4,5-bisphosphate 3-kinase catalytic subunit alpha isoform (Homo sapiens), P42336 [H1047L]. The experiment in a line: Inhibition of PIK3CA H1047L mutant (unknown origin) assessed as residual activity at 100 nM by KINOMEscan analysis relative to control.
The target in assay [5] is Tyrosine-protein kinase ABL2 (Homo sapiens) (UniProt P42684). In words: Inhibition of ABL2 (unknown origin) assessed as residual activity at 100 nM by KINOMEscan analysis relative to control.
Assay [6] concerns the target T1, Mitogen-activated protein kinase kinase kinase 7 (Homo sapiens) (UniProt O43318).
T1 sequence (whole entry): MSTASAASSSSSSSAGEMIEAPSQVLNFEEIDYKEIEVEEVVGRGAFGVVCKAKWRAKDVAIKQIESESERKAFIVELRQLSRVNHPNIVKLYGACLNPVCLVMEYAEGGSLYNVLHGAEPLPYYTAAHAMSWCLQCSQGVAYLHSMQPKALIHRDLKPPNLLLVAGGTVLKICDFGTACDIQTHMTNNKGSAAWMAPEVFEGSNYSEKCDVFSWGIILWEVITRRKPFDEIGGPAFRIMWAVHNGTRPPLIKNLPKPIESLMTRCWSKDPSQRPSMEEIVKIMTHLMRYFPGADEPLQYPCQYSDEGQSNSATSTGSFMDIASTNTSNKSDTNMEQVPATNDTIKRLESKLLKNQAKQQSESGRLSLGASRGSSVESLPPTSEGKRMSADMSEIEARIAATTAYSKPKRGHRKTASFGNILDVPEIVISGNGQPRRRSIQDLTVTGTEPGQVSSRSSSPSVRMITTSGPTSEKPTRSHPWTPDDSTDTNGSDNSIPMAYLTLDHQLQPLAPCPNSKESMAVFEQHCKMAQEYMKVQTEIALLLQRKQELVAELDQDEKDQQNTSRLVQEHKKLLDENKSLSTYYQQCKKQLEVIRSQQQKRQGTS
In words: Inhibition of TAK1 (unknown origin) assessed as residual activity at 100 nM by KINOMEscan analysis relative to control.

Assay [7] concerns the target Vascular endothelial growth factor receptor 1 (Homo sapiens) (UniProt P17948). The experiment in a line: Inhibition of FLT1 (unknown origin) assessed as residual activity at 100 nM by KINOMEscan analysis relative to control.
Assay [8] deals with Tyrosine-protein kinase JAK1 (Homo sapiens) (UniProt P23458). The experiment in a line: Inhibition of JAK1 JH1 catalytic domain (unknown origin) assessed as residual activity at 100 nM by KINOMEscan analysis relative to control.
Assay [9] deals with Myosin light chain kinase, smooth muscle (Homo sapiens) (UniProt Q15746). In words: Inhibition of MYLK (unknown origin) assessed as residual activity at 100 nM by KINOMEscan analysis relative to control.
The target in assay [10] is Protein-tyrosine kinase 2-beta (Homo sapiens) (UniProt Q14289). In words: Inhibition of PYK2 (unknown origin) assessed as residual activity at 100 nM by KINOMEscan analysis relative to control.
Assay [11] addresses Phosphatidylinositol 4,5-bisphosphate 3-kinase catalytic subunit beta isoform (Homo sapiens) (UniProt P42338). The experiment in a line: Inhibition of PIK3CB (unknown origin) assessed as residual activity at 100 nM by KINOMEscan analysis relative to control.
For assay [12], the target named is T2, Protein kinase C epsilon type (Homo sapiens) (UniProt Q02156).
T2 sequence (whole entry): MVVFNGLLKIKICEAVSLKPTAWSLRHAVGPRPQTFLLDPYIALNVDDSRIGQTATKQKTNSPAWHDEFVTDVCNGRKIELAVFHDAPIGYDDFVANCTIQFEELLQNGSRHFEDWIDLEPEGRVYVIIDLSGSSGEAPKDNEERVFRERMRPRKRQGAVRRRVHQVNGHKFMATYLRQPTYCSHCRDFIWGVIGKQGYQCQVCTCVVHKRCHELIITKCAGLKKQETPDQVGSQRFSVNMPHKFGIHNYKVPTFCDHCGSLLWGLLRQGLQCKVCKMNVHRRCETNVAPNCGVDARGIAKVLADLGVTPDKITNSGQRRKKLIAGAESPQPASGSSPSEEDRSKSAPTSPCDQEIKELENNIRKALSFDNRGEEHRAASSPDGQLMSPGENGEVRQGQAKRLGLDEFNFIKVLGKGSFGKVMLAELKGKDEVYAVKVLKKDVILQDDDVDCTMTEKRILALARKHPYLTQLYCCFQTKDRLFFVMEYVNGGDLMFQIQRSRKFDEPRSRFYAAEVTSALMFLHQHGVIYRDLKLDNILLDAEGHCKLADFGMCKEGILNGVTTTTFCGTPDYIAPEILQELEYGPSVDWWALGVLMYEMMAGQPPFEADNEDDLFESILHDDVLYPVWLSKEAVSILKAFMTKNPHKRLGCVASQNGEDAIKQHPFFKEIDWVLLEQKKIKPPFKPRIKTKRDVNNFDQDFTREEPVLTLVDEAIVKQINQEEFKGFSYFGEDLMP
In words: Inhibition of PRKCE (unknown origin) assessed as residual activity at 100 nM by KINOMEscan analysis relative to control.

In assay [13] the target is Bone morphogenetic protein receptor type-1A (Homo sapiens) (UniProt P36894). The experiment in a line: Inhibition of BMPR1A (unknown origin) assessed as residual activity at 100 nM by KINOMEscan analysis relative to control.
For assay [14], the target named is Mitogen-activated protein kinase kinase kinase 14 (Homo sapiens) (UniProt Q99558). In words: Inhibition of NIK (unknown origin) assessed as residual activity at 100 nM by KINOMEscan analysis relative to control.
A further assay is filed under the species Homo sapiens. The experiment in a line: Inhibition of N-terminal GST-tagged recombinant human SOS1 S876K mutant (564 to 1049 residues) expressed in Escherichia coli assessed as reduction in KRAS G12C mutant activation at 10 uM by HTRF analysis relative to control. Background: In TR-FRET formats the signal depends on donor and acceptor labels being close together.

The target in assay [15] is Serine/threonine-protein kinase WNK2 (Homo sapiens) (UniProt Q9Y3S1). The experiment in a line: Inhibition of WNK2 (unknown origin) assessed as residual activity at 1000 nM by KINOMEscan analysis relative to control.
Assay [16] has as its system Receptor-type tyrosine-protein kinase FLT3 (Homo sapiens), P36888 [UNDEFINED MUTATION]. The experiment in a line: Inhibition of FLT3 ITD/D835V mutant (unknown origin) assessed as residual activity at 1000 nM by KINOMEscan analysis relative to control.

As usually defined, the inhibition is the drop in the measured response relative to a control, in per cent.

Phosphatidylinositol 4,5-bisphosphate 3-kinase catalytic subunit beta isoform (Homo sapiens), sequence (P42338 whole entry, looked up, canonical isoform): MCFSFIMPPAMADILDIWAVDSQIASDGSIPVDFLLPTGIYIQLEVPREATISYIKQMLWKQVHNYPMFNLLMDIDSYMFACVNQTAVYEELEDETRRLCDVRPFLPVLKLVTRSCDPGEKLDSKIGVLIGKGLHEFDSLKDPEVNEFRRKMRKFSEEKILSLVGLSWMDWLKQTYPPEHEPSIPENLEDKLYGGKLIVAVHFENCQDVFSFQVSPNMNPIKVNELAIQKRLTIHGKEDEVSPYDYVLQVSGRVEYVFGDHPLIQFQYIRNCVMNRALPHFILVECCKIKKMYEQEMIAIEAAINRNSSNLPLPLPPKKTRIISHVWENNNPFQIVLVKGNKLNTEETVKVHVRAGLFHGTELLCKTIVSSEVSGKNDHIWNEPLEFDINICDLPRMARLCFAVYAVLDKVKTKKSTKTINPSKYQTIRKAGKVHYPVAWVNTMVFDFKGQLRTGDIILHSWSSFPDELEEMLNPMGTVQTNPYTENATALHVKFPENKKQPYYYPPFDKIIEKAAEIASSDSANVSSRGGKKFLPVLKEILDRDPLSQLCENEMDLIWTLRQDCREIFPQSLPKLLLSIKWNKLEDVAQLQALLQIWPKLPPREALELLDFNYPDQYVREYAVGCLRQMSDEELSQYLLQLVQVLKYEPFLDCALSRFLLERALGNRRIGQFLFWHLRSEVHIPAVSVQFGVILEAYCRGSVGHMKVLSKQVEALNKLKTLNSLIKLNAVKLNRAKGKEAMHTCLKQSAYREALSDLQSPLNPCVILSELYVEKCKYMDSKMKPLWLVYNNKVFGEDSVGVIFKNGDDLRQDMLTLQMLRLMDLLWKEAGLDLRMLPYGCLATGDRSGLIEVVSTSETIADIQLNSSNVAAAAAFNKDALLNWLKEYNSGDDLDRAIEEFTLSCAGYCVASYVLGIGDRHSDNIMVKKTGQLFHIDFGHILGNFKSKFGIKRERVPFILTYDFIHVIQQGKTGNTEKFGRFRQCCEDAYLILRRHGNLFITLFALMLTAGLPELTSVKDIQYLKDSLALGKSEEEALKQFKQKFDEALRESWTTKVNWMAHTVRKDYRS
Epidermal growth factor receptor (Homo sapiens), P00533 [UNDEFINED MUTATION], sequence (P00533 whole entry, looked up, stated change not applied): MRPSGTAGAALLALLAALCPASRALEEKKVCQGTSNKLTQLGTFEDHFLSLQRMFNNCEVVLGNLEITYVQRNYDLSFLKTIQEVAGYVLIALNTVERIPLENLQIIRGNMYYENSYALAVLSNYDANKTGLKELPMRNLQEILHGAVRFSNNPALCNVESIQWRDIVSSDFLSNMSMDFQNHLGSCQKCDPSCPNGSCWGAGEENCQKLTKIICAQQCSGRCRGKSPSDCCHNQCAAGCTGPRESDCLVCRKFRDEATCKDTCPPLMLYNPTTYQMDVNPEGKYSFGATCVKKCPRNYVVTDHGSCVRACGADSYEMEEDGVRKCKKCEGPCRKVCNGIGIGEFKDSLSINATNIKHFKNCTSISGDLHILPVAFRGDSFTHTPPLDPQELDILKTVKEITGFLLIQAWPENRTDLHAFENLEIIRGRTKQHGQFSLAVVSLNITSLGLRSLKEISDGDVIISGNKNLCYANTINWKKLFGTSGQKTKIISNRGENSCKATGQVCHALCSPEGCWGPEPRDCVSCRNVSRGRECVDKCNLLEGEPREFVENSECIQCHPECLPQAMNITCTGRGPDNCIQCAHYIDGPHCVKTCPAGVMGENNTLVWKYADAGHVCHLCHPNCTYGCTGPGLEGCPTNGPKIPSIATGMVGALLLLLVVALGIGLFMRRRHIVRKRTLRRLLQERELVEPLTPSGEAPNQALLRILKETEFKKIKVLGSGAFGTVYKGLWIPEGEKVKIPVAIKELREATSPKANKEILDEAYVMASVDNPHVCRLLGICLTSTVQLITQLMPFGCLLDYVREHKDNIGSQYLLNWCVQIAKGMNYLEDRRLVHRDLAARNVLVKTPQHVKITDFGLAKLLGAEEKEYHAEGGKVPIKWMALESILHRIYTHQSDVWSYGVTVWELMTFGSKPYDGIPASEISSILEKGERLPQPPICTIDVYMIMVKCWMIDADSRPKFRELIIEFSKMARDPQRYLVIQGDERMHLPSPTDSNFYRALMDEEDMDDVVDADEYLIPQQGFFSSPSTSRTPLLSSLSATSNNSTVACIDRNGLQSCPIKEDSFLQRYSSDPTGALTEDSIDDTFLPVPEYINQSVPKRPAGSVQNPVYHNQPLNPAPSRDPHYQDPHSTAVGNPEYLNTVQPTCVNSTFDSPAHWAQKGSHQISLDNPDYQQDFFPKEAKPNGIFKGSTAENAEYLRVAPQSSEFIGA
Vascular endothelial growth factor receptor 1 (Homo sapiens), sequence (P17948 whole entry, the tested form may be a part): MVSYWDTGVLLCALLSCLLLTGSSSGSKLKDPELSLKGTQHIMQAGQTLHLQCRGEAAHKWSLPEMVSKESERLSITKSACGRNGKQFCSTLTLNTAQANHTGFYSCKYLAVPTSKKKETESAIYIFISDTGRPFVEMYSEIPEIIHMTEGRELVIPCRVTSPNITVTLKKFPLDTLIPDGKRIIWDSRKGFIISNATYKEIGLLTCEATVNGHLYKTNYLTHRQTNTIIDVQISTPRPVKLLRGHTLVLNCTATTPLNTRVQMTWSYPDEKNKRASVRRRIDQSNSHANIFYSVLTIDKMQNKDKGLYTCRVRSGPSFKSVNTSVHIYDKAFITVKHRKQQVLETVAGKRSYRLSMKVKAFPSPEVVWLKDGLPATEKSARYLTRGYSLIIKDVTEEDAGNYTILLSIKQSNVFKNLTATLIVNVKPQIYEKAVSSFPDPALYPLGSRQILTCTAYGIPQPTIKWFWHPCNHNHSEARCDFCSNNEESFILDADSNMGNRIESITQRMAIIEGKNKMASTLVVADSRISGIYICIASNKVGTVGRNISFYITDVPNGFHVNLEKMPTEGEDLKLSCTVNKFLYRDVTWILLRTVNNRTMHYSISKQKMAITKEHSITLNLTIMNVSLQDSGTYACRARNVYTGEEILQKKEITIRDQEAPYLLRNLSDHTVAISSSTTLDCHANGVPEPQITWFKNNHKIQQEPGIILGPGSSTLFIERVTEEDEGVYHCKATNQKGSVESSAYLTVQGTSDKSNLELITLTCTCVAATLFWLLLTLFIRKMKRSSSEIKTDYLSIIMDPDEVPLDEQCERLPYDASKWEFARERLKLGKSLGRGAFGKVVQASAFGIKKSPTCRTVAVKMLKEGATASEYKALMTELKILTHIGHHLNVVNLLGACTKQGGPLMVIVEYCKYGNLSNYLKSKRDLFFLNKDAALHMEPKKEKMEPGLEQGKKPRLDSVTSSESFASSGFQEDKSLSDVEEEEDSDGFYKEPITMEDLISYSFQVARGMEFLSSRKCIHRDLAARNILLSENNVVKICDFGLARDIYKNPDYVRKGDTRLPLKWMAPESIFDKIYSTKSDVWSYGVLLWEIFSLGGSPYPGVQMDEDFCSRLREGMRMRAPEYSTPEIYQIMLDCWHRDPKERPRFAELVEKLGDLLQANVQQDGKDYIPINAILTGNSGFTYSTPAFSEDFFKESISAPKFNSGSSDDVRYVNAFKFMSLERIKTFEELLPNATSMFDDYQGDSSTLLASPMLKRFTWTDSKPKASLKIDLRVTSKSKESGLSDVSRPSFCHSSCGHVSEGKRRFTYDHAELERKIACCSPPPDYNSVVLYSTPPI
Protein-tyrosine kinase 2-beta (Homo sapiens), sequence (Q14289 whole entry, looked up, canonical isoform): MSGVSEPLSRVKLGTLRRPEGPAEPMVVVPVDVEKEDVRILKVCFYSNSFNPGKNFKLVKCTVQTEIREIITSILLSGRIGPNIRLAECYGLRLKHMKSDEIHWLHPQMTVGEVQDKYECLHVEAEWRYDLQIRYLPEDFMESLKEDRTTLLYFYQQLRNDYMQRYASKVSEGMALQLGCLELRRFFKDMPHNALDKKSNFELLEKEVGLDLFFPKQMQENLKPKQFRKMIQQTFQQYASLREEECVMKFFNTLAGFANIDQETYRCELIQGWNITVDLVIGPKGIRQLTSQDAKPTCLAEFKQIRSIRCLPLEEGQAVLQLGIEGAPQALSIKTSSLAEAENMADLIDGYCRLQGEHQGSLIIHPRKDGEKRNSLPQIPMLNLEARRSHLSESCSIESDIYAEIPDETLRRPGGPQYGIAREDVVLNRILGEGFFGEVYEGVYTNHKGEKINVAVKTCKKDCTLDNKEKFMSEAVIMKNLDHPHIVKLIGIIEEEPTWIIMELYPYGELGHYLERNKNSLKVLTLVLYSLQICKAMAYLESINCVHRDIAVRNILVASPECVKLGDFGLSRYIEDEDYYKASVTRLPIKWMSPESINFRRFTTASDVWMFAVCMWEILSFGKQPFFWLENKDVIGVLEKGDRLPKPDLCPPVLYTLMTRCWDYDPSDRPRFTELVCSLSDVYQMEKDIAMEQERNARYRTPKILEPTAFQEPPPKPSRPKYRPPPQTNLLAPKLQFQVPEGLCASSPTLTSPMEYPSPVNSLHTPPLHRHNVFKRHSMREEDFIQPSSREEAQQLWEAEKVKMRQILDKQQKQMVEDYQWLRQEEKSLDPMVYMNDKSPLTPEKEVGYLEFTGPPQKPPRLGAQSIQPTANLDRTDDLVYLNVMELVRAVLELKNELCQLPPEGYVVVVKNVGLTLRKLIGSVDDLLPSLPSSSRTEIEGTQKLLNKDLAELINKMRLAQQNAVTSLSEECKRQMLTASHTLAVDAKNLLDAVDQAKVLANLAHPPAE

Take `COc1cc2ncnc(N[C@H](C)c3cccc4ccccc34)c2cc1OC`: the Activity was 94% in assay [1]; 93% in assay [2]; 90% in [3]; 73% in assay [4]; 81% in assay [5]; 83% in [6]. The Activity in assay [7] worked out at 93%; in [8] it was 79%; in assay [9], 69%; in assay [10], 100%; in assay [11], 72%; in [12], 96%. Also, the Activity in assay [13] was 71%; in assay [14], 81%. Moreover, the inhibition in the assay listed under Homo sapiens came to 102%.

Turning to `COc1cc2nc(C)nc(N[C@H](C)c3cccc(-c4cn[nH]c4)c3)c2cc1OC`, the Activity in assay [15] and in [16] was 100% each time.
